Results on 19 compounds are retold here after patent US20060276464A1, “Diarylsulfone sulfonamides and use thereof” (Wyeth, priority 2005, published 2006).

Several values for one entry are separate records, joined by “and”; a condition that tells them apart may be missing. Equal values may be shown once. Read-outs that look alike come from different tables or passages of the source.

The target in assay [1] is T1, SFRP-1 (Homo sapiens, UniProt Q8N474).
T1 sequence (Q8N474 32-314): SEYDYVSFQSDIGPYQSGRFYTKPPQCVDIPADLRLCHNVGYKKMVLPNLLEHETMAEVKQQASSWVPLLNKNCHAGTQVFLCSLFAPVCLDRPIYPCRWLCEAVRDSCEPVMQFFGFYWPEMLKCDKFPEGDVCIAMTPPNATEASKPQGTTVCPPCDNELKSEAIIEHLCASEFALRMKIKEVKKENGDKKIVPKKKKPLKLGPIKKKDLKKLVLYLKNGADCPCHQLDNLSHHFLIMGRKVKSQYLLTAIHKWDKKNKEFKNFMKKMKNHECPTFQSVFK
The experiment in a line: Fluorescence polarization binding assay (competitive displacement of a probe compound from SFRP-1).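 Note: test compound competes with a fluorescent probe held by SFRP-1, seen as a drop in probe anisotropy after incubation in darkness, with anisotropy as function of rising compound dose.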 Conditions: fluorescence anisotropy, 45 nM SFRP-1, 20 nM probe. For orientation: In fluorescence polarisation assays a small probe gives low polarisation when free and higher when bound to something large.

Assay [2] addresses T1, SFRP-1. Put plainly: Cell-based assay for in vitro measurement of SFRP-1/SARP2 antagonist activity (U2OS cells co-transfected with 16x TCF-tk-Luciferase reporter, Wnt and hSFRP-1).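 Note: U2OS cells co-transfected with a TCF-tk luciferase reporter, a Wnt vector, hSFRP-1 or empty vector and CMV-βgal, luciferase luminescence read in cell lysates alongside βgal activity.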 Particulars: U2OS.
Setting [3] is: read-out: Fold Induction with SFRP-1, Conc 15 μM, with SFRP-1, fold induction over SFRP-1 control, single dose.
The mark [4] stands for this setting: read-out: Fold Induction without SFRP-1, Conc 15 μM, without SFRP-1, single dose.
[5] abbreviates: read-out: Fold Induction with SFRP-1, Conc 15 μM, single dose, luciferase reporter, fold induction over SFRP-1 control, cells with SFRP-1.
[6] abbreviates: read-out: Fold Induction without SFRP-1, Conc 15 μM, single dose, luciferase reporter, cells without SFRP-1 (specificity control).

For orientation: IC50 means the concentration needed to halve the response being measured. A lower IC50 goes with greater potency in that assay. `Cc1ccc(S(=O)(=O)c2ccccc2)cc1S(=O)(=O)NC1CCN(C(=O)c2cccc(C#N)c2)CC1` [Example 477, N-[1-(3-cyanobenzoyl)piperidin-4-yl]-2-methyl-5-(phenylsulfonyl)benzenesulfonamide] gave an IC50 at SFRP-1 [1] of 2200 nM. The results for the fold induction at 15 µM at SFRP-1 [2] (setting [3]) and on SFRP-1 [2] (setting [4]) were 2.1 and 1, respectively.
The like results for `Cc1ccc(S(=O)(=O)c2ccccc2)cc1S(=O)(=O)NC1CCN(S(C)(=O)=O)CC1` [Example 478, 2-methyl-N-[1-(methylsulfonyl)piperidin-4-yl]-5-(phenylsulfonyl)benzenesulfonamide] were, in that order, 1300 nM, 2.3 and 1.
With `CC(=O)Nc1ccc(C(=O)N2CCC(NS(=O)(=O)c3cc(S(=O)(=O)c4ccccc4)ccc3C)CC2)cc1` [Example 480, N-(4-{[4-({[2-methyl-5-(phenylsulfonyl)phenyl]sulfonyl}amino)piperidin-1-yl]carbonyl}phenyl)acetamide], the IC50 on SFRP-1 [1] amounted to 2900 nM. The fold induction at 15 µM at SFRP-1 [2] (setting [3]) is 1.7; on SFRP-1 [2] (setting [4]) it was 1.
For the compound `Cc1ccc(S(=O)(=O)c2ccccc2)cc1S(=O)(=O)NC1CCN(S(=O)(=O)c2cn(C)cn2)CC1` [Example 481, 2-methyl-N-{1-[(1-methyl-1H-imidazol-4-yl)sulfonyl]piperidin-4-yl}-5-(phenylsulfonyl)benzenesulfonamide], the IC50 at SFRP-1 [1] was determined as 1200 nM. In addition, the fold induction at 15 µM was determined as 1.8 at SFRP-1 [2] (setting [3]) and 1 on SFRP-1 [2] (setting [4]).
The like results for `Cc1ccc(S(=O)(=O)c2ccccc2)cc1S(=O)(=O)NC1CCN(S(=O)(=O)c2cccs2)CC1` [Example 482, 2-methyl-5-(phenylsulfonyl)-N-[1-(2-thienylsulfonyl)piperidin-4-yl]benzenesulfonamide] were, in that order, 800 nM, 3.2 and 1.1.
The like results for `Cc1ccc(S(=O)(=O)c2ccccc2)cc1S(=O)(=O)NC1CCN(C(=O)c2ccc3c(c2)OCO3)CC1` [Example 484, N-[1-(1,3-benzodioxol-5-ylcarbonyl)piperidin-4-yl]-2-methyl-5-(phenylsulfonyl)benzenesulfonamide] were, in that order, 1500 nM, 2.4 and 1.1.
Compound `Cc1ccc(S(=O)(=O)c2ccccc2)cc1S(=O)(=O)NC1CCN(C(=O)c2ccno2)CC1` [Example 485, N-[1-(isoxazol-5-ylcarbonyl)piperidin-4-yl]-2-methyl-5-(phenylsulfonyl)benzenesulfonamide] yielded a 50% inhibitory concentration (IC50) at SFRP-1 [1] of 1700 nM. In addition, the fold induction at 15 µM amounted to 2.5 at SFRP-1 [2] (setting [5]) and 1 at SFRP-1 [2] (setting [6]).
With `Cc1ccc(S(=O)(=O)c2ccccc2)cc1S(=O)(=O)NC1CCN(C(=O)CN(C)C)CC1` [Example 486, N-[1-(N,N-dimethylglycyl)piperidin-4-yl]-2-methyl-5-(phenylsulfonyl)benzenesulfonamide], at SFRP-1 [1], the 50% inhibitory concentration (IC50) was 5000 nM. For the same compound, the fold induction at 15 µM at SFRP-1 [2] (setting [5]) is 2.1; on SFRP-1 [2] (setting [6]), 1.1.
For `C#CCOC(=O)N1CCC(NS(=O)(=O)c2cc(S(=O)(=O)c3ccccc3)ccc2C)CC1` [Example 487, prop-2-yn-1-yl 4-({[2-methyl-5-(phenylsulfonyl)phenyl]sulfonyl}amino)piperidine-1-carboxylate] the same measures were 500 nM, 2.1 and 1.1.
`COC(=O)N1CCC(NS(=O)(=O)c2cc(S(=O)(=O)c3ccccc3)ccc2C)CC1` [Example 488, methyl 4-({[2-methyl-5-(phenylsulfonyl)phenyl]sulfonyl}amino)piperidine-1-carboxylate] registered an IC50 on SFRP-1 [1] of 2100 nM. Moreover, the figures for the fold induction at 15 µM on SFRP-1 [2] (setting [5]) and on SFRP-1 [2] (setting [6]) were 2 and 0.9, respectively.
The like results for `COc1ccccc1OC(=O)N1CCC(NS(=O)(=O)c2cc(S(=O)(=O)c3ccccc3)ccc2C)CC1` [Example 489, 2-methoxyphenyl 4-({[2-methyl-5-(phenylsulfonyl)phenyl]sulfonyl}amino)piperidine-1-carboxylate] were, in that order, 1000 nM, 2.4 and 1.1.
The like results for `Cc1ccc(S(=O)(=O)c2ccccc2)cc1S(=O)(=O)NC1CCN(C(=O)NC(C)(C)C)CC1` [Example 490, N-(tert-butyl)-4-({[2-methyl-5-(phenylsulfonyl)phenyl]sulfonyl}amino)piperidine-1-carboxamide] were, in that order, 2300 nM, 1.7 and 1.
The like results for `Cc1ccc(S(=O)(=O)c2ccccc2)cc1S(=O)(=O)NC1CCN(C(=O)c2ccc3ccccc3c2)CC1` [Example 496, 2-methyl-N-[1-(2-naphthoyl)piperidin-4-yl]-5-(phenylsulfonyl)benzenesulfonamide] were, in that order, 1400 nM, 1.9 and 1.
For the compound `Cc1ccc(S(=O)(=O)c2ccccc2)cc1S(=O)(=O)NC1CCN(C(=O)c2cccs2)CC1` [Example 497, 2-methyl-5-(phenylsulfonyl)-N-[1-(2-thienylcarbonyl)piperidin-4-yl]benzenesulfonamide], at SFRP-1 [1], the IC50 is 1300 nM and 1700 nM. For the same compound, the fold induction at 15 µM is 2.4 at SFRP-1 [2] (setting [5]) and 1 at SFRP-1 [2] (setting [6]).
As for `Cc1ccc(S(=O)(=O)c2ccccc2)cc1S(=O)(=O)NC1CCN(C(=O)OCC(C)C)CC1` [Example 498, isobutyl 4-({[2-methyl-5-(phenylsulfonyl)phenyl]sulfonyl}amino)piperidine-1-carboxylate], the half-maximal inhibitory concentration (IC50) at SFRP-1 [1] is 2200 nM. The figures for the fold induction at 15 µM at SFRP-1 [2] (setting [5]) and at SFRP-1 [2] (setting [6]) were 1.8 and 1, respectively.
The like results for `Cc1ccc(S(=O)(=O)c2ccccc2)cc1S(=O)(=O)NC1CCN(C(=O)c2ccc(N(C)C)cc2)CC1` [Example 499, N-{1-[4-(dimethylamino)benzoyl]piperidin-4-yl}-2-methyl-5-(phenylsulfonyl)benzenesulfonamide] were, in that order, 900 nM, 2.4 and 1.
For `CCNC(=O)N1CCC(NS(=O)(=O)c2cc(S(=O)(=O)c3ccccc3)ccc2C)CC1` [Example 501, N-ethyl-4-({[2-methyl-5-(phenylsulfonyl)phenyl]sulfonyl}amino)piperidine-1-carboxamide] the same measures were 4000 nM, 2.5 and 0.9.
`Cc1ccc(S(=O)(=O)c2ccccc2)cc1S(=O)(=O)NC1CCN(C(=O)N2CCOCC2)CC1` [Example 502, 2-methyl-N-[1-(morpholin-4-ylcarbonyl)piperidin-4-yl]-5-(phenylsulfonyl)benzenesulfonamide] had an IC50 at SFRP-1 [1] of 3000 nM. Also, the fold induction at 15 µM at SFRP-1 [2] (setting [5]) turned out to be 2.9; at SFRP-1 [2] (setting [6]), 1.
For `Cc1ccc(S(=O)(=O)c2ccccc2)cc1S(=O)(=O)NC1CCN(C(=O)N(C)C)CC1` [Example 503, N,N-dimethyl-4-({[2-methyl-5-(phenylsulfonyl)phenyl]sulfonyl}amino)piperidine-1-carboxamide] the same measures were 2400 nM, 2.7 and 0.9.
